In patent US9416126B2, “Compounds inhibiting leucine-rich repeat kinase enzyme activity” (Merck Sharp & Dohme Corp., priority 2013, dated 2016):

Key:
Assay type in all cases: biochemical
[1] = molecular target: T1, LRRK2(G2019S mutation, GST-LRRK2(amino acids 970-2527)) (Homo sapiens (Human), UniProt Q5S007, G2019S); assay: LRRK2 Km ATP LanthaScreen Assay; details: Km ATP (184 μM ATP solution), G2019S LRRK2, mean IC50
Procedure, shortened: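 TR-FRET: GST-LRRK2 970-2527 G2019S (2.5 nM solution) preincubated 30 min with compound (98 μM top, 1:2.15 dilutions), then 800 nM fluorescein-LRRKtide and 184 μM ATP solution added for 60 min at room temperature in Tris pH 8.5 buffer. Stopped with EDTA and Tb anti-phospho-LRRKtide antibody; IC50 is a mean of several tests.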

[2] = molecular target: T1, LRRK2(G2019S mutation, GST-LRRK2(amino acids 970-2527)); assay: LRRK2 5 mM ATP LanthaScreen Assay
Description: The data presented for the 5 mM and Km ATP LanthaScreen™ Assay represents mean IC50 values based on several test results and may have reasonable. deviations depending on the specific conditions and reagents used. Reagents for the LRRK2 5 mM and Km ATP LanthaScreen™ Assay were purchased from Life Technologies Corporation.
LRRK2 5 mM ATP LanthaScreen™ Assay
a) 400 nl of a 1:2.15 serial dilution of test compound(98 μM top assay concentration) is spotted via Labcyte Echo to certain wells in a 384 well black, untreated plate. Control wells contain 400 nl of either DMSO or 400 nl of a known inhibitor in DMSO.
b) 10 μl of a 2.5 nM LRRK2(G2019S mutation, GST-LRRK2(amino acids 970-2527)) enzyme solution in 1× assay buffer(50 mM Tris pH 8.5, 10 mM MgCl2, 0.01% Brij-35, 1.0 mM EGTA, 2 mM DTT, 0.05 mM NaVO4) is added to all wells.
c) A 30 minute room temperature incubation is followed by addition of 10 μl of 800 nM fluorescein labeled LRRKtide peptide substrate and 10 mM ATP solution in 1× assay buffer to all wells.
d) After a 35 minute room temperature incubation, 20 μl of TR-FRET Dilution Buffer(Invitrogen PV3756B) containing 4 nM Tb-labeled anti-phospho LRRKtide antibody and 20 mM EDTA is added to all wells.
e) Plates are incubated at room temperature for 1 hour and read on an Envision™ multi-mode plate reader with LanthaScreen™ settings. Results are analysed using Assay Data Analyzer.

kinases [3] = molecular target: kinases (Homo sapiens, UniProt P15056, V600E); assay: Kinase selectivity using Z'-LYTE or Adapta; details: 1 μM of Example; Z-LYTE platform
kinases [4] = assay: Kinase selectivity using Z'-LYTE or Adapta; details: 1 μM of Example; for percent inhibition IRAK1: Adapta platform; for percent inhibition AURKB (Aurora B) / percent inhibition CDK1/cyclin B / percent inhibition CHEK2 (CHK2) / percent inhibition CLK2 / percent inhibition DYRK1A / percent inhibition JAK3 / percent inhibition MAPK1 (ERK2) / percent inhibition MAPK8 (JNK1): Z-LYTE platform

T1 sequence (Q5S007 970-2527 G2019S): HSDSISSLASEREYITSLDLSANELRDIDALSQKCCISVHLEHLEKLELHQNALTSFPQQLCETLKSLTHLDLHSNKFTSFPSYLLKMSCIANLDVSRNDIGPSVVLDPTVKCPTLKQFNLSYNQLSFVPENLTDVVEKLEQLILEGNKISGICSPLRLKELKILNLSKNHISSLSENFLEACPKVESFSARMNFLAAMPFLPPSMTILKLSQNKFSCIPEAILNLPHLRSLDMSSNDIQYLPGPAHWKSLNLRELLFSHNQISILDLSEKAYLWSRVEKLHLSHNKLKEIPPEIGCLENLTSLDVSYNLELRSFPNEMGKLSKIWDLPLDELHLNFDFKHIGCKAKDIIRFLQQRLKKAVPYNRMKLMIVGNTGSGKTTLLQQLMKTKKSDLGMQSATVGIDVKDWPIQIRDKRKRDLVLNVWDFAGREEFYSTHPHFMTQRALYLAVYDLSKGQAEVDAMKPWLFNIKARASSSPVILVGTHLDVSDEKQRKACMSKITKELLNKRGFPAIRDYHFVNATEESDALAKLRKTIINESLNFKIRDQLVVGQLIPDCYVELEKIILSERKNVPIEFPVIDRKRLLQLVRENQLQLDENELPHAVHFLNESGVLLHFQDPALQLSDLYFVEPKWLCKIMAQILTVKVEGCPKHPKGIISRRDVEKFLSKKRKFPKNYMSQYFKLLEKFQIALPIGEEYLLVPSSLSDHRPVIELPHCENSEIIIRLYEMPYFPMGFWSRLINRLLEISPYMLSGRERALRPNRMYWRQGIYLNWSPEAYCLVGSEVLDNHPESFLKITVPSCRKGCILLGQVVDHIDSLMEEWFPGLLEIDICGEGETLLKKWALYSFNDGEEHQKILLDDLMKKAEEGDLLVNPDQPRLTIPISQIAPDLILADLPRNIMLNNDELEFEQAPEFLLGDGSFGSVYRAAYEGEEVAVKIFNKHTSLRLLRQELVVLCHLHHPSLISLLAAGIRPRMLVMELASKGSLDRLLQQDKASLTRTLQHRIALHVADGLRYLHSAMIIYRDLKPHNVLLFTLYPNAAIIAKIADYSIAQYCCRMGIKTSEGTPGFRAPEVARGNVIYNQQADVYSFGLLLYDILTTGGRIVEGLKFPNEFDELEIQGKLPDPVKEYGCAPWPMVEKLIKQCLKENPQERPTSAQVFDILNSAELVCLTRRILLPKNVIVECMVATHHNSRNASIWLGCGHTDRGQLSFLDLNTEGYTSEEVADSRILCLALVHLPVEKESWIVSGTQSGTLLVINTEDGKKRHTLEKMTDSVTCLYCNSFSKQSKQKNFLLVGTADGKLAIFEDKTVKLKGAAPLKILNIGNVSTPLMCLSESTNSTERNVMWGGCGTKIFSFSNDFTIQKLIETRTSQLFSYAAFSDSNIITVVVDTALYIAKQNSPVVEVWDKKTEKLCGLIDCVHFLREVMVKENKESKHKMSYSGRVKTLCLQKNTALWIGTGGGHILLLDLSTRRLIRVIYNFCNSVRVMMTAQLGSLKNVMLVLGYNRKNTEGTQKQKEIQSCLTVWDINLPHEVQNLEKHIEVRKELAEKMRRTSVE
kinases (Homo sapiens, UniProt P15056, V600E), sequence (P15056 2-766 V600E limits assumed): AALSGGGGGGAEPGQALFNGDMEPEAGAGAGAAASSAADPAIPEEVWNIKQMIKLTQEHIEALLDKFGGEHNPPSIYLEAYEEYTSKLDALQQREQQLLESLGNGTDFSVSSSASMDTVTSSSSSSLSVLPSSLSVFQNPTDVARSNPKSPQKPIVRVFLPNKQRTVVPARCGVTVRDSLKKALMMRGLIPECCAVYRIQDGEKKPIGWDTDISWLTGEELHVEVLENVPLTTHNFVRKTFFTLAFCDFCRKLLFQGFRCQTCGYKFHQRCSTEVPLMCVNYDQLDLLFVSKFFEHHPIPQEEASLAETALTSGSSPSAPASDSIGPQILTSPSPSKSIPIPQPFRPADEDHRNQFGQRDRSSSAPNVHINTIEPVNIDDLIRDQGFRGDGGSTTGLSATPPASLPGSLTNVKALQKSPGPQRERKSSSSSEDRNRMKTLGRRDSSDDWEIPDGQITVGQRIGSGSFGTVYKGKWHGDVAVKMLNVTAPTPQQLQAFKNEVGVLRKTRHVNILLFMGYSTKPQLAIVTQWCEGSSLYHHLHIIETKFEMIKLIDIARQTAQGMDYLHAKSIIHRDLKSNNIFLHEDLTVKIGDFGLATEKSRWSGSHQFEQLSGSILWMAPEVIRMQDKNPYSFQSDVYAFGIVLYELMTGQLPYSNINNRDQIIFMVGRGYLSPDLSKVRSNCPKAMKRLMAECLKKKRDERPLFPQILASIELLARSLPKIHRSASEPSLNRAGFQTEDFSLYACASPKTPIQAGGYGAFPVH

SMILES | IC50 [1] [nM] | IC50 [2] [nM] | percent inhibition BRAF V599E (kinases [3]) [%] | percent inhibition IRAK1 (kinases [4]) [%] | percent inhibition AURKB (Aurora B) (kinases [4]) [%] | percent inhibition CDK1/cyclin B (kinases [4]) [%] | percent inhibition CHEK2 (CHK2) (kinases [4]) [%] | percent inhibition CLK2 (kinases [4]) [%] | percent inhibition DYRK1A (kinases [4]) [%] | percent inhibition JAK3 (kinases [4]) [%] | percent inhibition MAPK1 (ERK2) (kinases [4]) [%] | percent inhibition MAPK8 (JNK1) (kinases [4]) [%]
CC(C)Oc1ccc2[nH]nc(-c3cc(N4CCO[C@H](C)C4)ncn3)c2c1 [Example D2] | 5.09 | 67 | −11 | −7 | 9 | 7 | 1 | 79 | 13 | 8 | 5 | 28
CC(C)Oc1ccc2[nH]nc(-c3cc(N4CCOCC4)ncn3)c2c1 [Example D6] | 5.95 | 96 | 2 | −1 | 16 | 7 | 7 | 66 | 12 | 5 | 7 | 28
CC(C)Oc1ccc2[nH]nc(-c3cc(N4CCN(CCF)CC4)ncn3)c2c1 [Example D15] | 5.5 | 34 | 28 | −3 | 18 | 10 | 13 | 70 | 30 | 9 | 16 | 56
CC(C)Oc1cc2c(-c3cc(N4CCN(S(C)(=O)=O)CC4)ncn3)n[nH]c2cc1F [Example D24] | 3.09 | 28 |  |  |  |  |  |  |  |  |  | 
CC(C)Oc1cc2c(-c3cc(N4CCN(C)CC4)ncn3)n[nH]c2cc1F [Example D25] | 4.35 |  | 7 | 15 | 14 | 17 | 8 | 89 | 39 | 8 | 0 | 56
CC(C)Oc1ccc2[nH]nc(-c3cc(N4CCC5(CCNC5=O)CC4)ncn3)c2c1 [Example D32] | 2.31 | 30 |  |  |  |  |  |  |  |  |  | 
CC(C)Oc1cc2c(-c3cc(N4C[C@@H](C)O[C@@H](C)C4)ncn3)n[nH]c2cc1F [Example D41] | 2.89 | 22 |  |  |  |  |  |  |  |  |  | 
COC[C@H](C)Oc1ccc2[nH]nc(-c3cc(N4CCOCC4)ncn3)c2c1 [Example H4] | 2.6 | 33 |  |  |  |  |  |  |  |  |  | 
COCCN1CCN(c2cc(-c3n[nH]c4ccc(OC(C)C)cc34)ncn2)CC1 [Example K10] | 4.9 | 24 |  |  |  |  |  |  |  |  |  | 
